Test results from ChEMBL document CHEMBL4837250, “Discovery of LYC-55716: A Potent, Selective, and Orally Bioavailable Retinoic Acid Receptor-Related Orphan Receptor-γ (RORγ) Agonist for Use in Treating Cancer” (J Med Chem, 2021).
Values after ≈ are worked out from the molar mass of the structure shown.

How the values were obtained:
CYP3A4 = CYP3A4 (Homo sapiens, UniProt P08684); experiment: in vitro; conditions: probe testosterone
Description: Inhibition of CYP3A4 (unknown origin) assessed as oxidation of testosterone at 10 uM

[1] = molecular target: T1, Nuclear receptor ROR-gamma (Homo sapiens, UniProt P51449)
T1 sequence (P51449 whole entry): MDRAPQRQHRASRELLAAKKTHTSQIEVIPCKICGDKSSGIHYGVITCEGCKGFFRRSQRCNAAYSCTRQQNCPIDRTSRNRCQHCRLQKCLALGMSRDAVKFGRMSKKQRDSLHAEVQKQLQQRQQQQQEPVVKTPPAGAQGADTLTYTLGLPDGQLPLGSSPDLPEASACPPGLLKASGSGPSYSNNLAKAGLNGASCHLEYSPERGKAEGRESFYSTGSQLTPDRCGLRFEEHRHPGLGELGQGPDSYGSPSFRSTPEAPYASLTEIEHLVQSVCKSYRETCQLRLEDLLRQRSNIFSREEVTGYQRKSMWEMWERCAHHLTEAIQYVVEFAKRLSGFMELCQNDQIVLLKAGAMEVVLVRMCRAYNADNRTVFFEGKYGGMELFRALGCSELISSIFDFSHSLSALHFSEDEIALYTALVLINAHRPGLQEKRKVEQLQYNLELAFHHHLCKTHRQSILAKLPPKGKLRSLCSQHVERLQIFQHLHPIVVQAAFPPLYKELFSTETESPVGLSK
Description: Agonist activity at human ROR-gamma LBD expressed in HEK293 cells assessed as transcriptional activity in presence of ursolic acid by Gal4-luciferase reporter assay

in vivo [2] = conditions: CD1, mouse, po, 10 mg/kg
physchem = conditions: PBS buffer, pH 7.4
Description: Solubility of the compound in pH 7.4 PBS buffer

in vivo [3] = conditions: CD1, mouse, po, 10 mg/kg; remark: listed apart in the source
in vivo [4] = conditions: CD1, mouse, po, 10 mg/kg; remark: listed apart in the source
Description: Half life in CD1 mouse at 10 mg/kg, po

[5] = molecular target: T2, Nuclear receptor subfamily 1 group I member 2 (Homo sapiens, UniProt O75469)
T2 sequence (O75469 whole entry): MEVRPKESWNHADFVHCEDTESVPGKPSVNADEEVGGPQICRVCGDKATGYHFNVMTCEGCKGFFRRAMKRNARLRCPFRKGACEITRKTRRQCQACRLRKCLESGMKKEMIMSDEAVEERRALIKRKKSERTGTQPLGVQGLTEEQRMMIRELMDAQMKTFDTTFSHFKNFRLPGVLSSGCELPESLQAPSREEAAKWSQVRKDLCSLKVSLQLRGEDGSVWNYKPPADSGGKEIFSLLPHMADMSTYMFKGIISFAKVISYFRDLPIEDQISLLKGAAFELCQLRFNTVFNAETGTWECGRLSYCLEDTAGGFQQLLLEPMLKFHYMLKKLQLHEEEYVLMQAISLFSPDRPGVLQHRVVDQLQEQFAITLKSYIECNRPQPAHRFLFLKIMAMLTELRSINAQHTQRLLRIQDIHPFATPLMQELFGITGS
Description: Agonist activity at human PXR-gamma expressed in HEK293 cells assessed as transcriptional activity in presence of ursolic acid by Gal4-luciferase reporter assay

in vitro [6] = conditions: human, hepatocytes
CYP2D6 = CYP2D6 (Homo sapiens, UniProt P10635); experiment: in vitro; conditions: probe testosterone
CYP2D6, sequence (P10635 whole entry): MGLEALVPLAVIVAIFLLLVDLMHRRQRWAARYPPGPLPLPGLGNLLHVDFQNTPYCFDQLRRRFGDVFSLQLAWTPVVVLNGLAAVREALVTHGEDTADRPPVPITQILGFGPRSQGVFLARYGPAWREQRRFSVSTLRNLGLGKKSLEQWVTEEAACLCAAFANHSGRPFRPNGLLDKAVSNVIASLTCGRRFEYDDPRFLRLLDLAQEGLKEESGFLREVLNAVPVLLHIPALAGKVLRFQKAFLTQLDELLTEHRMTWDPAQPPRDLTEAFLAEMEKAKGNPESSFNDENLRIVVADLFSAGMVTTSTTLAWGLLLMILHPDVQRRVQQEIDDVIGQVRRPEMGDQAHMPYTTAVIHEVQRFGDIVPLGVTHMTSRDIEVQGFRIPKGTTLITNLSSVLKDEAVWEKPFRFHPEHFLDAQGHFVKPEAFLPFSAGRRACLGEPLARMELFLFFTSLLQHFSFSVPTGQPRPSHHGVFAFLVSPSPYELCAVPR
Description: Inhibition of CYP2D6 (unknown origin) assessed as oxidation of testosterone at 10 uM

in vivo [7] = conditions: CD1, mouse, plasma, po, 10 mg/kg
[8] = molecular target: T1, Nuclear receptor ROR-gamma; remark: listed apart in the source
Description: Agonist activity at human His-tagged RORgamma-LBD expressed in Sf9 cells assessed as inhibition of N-terminal biotinylated co-activator SRC1 recruitment in presence of ursolic acid measured after 60 mins by FRET assay

in vitro [9] = conditions: human, hepatocytes; remark: listed apart in the source
Description: Clearance in human hepatocyte measured per 10^6 cells

[10] = molecular target: T3, Nuclear receptor ROR-beta (Homo sapiens, UniProt Q92753)
T3 sequence (Q92753 whole entry): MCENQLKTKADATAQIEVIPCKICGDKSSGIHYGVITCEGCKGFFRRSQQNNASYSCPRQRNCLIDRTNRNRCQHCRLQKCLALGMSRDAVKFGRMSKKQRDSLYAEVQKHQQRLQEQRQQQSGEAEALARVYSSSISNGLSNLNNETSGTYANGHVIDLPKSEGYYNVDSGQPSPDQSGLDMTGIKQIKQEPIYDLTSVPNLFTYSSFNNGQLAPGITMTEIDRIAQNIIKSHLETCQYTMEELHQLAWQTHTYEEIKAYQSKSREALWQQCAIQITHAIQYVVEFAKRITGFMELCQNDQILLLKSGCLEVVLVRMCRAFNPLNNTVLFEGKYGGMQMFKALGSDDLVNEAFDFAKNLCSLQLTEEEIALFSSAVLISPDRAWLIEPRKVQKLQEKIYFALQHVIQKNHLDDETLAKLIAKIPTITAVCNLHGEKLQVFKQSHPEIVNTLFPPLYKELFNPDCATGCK
Description: Agonist activity at RORbeta (unknown origin)

in vivo [11] = conditions: cynomolgus monkey, po, at 30 to 300 mg/kg
in vivo [12] = conditions: Sprague-Dawley, rat, po, at 30 to 300 mg/kg
in vivo [13] = conditions: Sprague-Dawley, rat, iv, 1 mg/kg
Description: Half life in Sprague-Dawley rat at 1 mg/kg, iv

in vitro [14] = conditions: human, plasma
Description: Plasma protein binding in human

in vivo [15] = conditions: cynomolgus monkey, iv, 1 mg/kg
Description: Half life in cynomolgus monkey rat at 1 mg/kg, iv

in vivo [16] = conditions: cynomolgus monkey, iv, 1 mg/kg; remark: listed apart in the source
Description: Volume of distribution in cynomolgus monkey rat at 1 mg/kg, iv

in vivo [17] = conditions: Sprague-Dawley, rat, iv, 1 mg/kg; remark: listed apart in the source
Description: Volume of distribution in Sprague-Dawley rat at 1 mg/kg, iv

[18] = molecular target: T4, Nuclear receptor ROR-alpha (Homo sapiens, UniProt P35398)
T4 sequence (P35398 whole entry): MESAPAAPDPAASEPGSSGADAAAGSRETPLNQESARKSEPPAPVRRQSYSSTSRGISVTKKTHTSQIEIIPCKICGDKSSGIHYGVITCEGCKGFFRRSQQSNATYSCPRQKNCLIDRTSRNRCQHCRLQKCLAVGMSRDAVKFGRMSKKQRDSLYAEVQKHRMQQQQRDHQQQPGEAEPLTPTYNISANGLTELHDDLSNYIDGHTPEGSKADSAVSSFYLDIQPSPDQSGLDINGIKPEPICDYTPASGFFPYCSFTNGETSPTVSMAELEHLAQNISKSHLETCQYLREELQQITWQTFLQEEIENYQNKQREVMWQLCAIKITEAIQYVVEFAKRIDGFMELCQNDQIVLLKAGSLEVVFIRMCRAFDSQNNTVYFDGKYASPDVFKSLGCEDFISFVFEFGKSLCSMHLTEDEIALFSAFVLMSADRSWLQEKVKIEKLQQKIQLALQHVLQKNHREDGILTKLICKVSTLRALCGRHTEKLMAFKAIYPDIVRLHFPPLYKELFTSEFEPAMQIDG
Description: Agonist activity at RORalpha (unknown origin)

cells = conditions: Mus musculus, C57/BL6
Description: In vivo agonist activity at RORgamma in C57/BL6 mouse assessed as plasma concentration required to increase RORgamma targeted gene expression in isolated thymocytes

MC-38 = experiment: animal or person; conditions: Mus musculus, MC-38, po, 600 h, read-out: TGI
Description: Antitumor activity against mouse MC38 cells implanted in C57/BL6 mouse assessed as tumor growth inhibition at 30 mg/kg, po twice daily measured up to 25 days

in vitro [19] = conditions: mouse, plasma
Description: Plasma protein binding in mouse

hERG (KCNH2) = hERG (KCNH2) (Homo sapiens, UniProt Q12809); experiment: in vitro
hERG (KCNH2), sequence (Q12809 whole entry): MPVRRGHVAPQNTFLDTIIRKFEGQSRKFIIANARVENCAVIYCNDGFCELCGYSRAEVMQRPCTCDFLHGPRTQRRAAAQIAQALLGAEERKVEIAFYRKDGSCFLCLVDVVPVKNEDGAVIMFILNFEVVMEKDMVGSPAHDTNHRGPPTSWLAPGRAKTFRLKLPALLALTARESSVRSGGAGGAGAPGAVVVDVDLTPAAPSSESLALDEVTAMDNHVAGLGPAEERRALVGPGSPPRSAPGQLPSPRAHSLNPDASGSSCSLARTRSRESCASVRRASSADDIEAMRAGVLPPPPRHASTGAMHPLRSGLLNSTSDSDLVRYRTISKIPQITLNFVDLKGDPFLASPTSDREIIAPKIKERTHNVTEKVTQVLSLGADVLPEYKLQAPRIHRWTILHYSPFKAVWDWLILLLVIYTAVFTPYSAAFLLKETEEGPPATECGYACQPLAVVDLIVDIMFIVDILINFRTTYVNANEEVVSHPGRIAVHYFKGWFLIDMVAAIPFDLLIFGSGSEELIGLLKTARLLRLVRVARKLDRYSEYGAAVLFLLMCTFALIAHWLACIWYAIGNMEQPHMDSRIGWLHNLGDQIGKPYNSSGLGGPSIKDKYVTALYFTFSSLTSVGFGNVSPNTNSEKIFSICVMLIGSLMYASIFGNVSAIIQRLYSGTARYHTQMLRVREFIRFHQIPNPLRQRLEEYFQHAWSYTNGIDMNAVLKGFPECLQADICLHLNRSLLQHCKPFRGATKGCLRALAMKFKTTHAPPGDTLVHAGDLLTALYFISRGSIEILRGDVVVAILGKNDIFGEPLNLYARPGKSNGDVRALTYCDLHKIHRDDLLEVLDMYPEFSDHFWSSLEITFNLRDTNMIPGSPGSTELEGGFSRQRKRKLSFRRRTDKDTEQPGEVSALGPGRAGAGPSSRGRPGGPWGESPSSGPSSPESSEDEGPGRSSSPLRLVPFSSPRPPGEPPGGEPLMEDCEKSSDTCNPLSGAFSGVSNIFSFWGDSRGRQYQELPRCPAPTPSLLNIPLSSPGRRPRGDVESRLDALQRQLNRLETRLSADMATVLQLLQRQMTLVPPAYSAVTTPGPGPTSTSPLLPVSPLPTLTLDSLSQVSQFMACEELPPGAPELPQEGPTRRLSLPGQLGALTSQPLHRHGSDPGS
Description: Inhibition of human ERG by patch-clamp assay

CYP3A4, sequence (P08684 whole entry): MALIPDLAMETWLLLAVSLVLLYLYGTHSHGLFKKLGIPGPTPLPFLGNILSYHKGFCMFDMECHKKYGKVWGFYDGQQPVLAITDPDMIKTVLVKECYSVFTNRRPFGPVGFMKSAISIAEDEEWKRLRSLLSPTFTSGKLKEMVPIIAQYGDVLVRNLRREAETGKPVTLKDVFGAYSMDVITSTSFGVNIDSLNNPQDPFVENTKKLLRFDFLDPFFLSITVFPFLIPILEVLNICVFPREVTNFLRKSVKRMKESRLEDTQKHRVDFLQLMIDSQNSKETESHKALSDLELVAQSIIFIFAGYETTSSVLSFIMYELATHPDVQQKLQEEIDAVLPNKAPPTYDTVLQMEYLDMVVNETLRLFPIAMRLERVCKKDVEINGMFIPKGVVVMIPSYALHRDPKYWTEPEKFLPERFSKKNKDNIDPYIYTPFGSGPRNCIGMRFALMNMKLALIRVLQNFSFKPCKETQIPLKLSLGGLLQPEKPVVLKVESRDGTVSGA

Row | SMILES | inhibition at 10 µM (CYP3A4) [%] | EC50 [1] [nM] | bioavailability (in vivo [2]) [%] | solubility (physchem) [µM] | AUC(0-inf) (in vivo [3]) [ng·h/mL] | half-life (in vivo [4]) [h] | EC50 [5] [nM] | hepatocyte CLint (in vitro [6]) [µL/min/1e6 cells] | inhibition at 10 µM (CYP2D6) [%] | CL/F (in vivo [7]) [mL/min/kg] | EC50 [8] [nM] | further results
1 | CCOc1nn2c(c1S(=O)(=O)N1C[C@H](CCC(=O)O)Oc3ccc(/C=C(\C)c4c(F)cccc4Cl)cc31)CCCC2 | 19 | 199 | 100 | 288 (≈ 174 µg/mL) | 35600 | 1.66 | > 10000 | 15 | 6 | 7.8 | – | –
2 | CC(C)(C[C@H]1CN(S(=O)(=O)c2cccc(C(F)(F)F)c2)c2cc(-c3cc(F)ccc3F)ccc2O1)C(=O)O | 28 | 344 | 78 | 13 (≈ 7.22 µg/mL) | 9820 | 7.35 | > 10000 | 7.7 | 6 | 13.2 | 13 | –
3 | O=C(O)C1(C[C@H]2CN(S(=O)(=O)c3cccc(C(F)(F)F)c3)c3cc(-c4cc(F)cc(OC(F)F)c4)ccc3O2)COC1 | – | – | 59 | 262 (≈ 162 µg/mL) | 1400 | 2.74 | – | 17 | – | 70.2 | – | hepatocyte CLint (in vitro [9]): 17 µL/min/1e6 cells
4 | O=C(O)CC[C@H]1CN(S(=O)(=O)c2cccc(C(F)(F)F)c2)c2cc(-c3cccc(F)c3Cl)ccc2O1 | 11 | 144 | 95 | 247 (≈ 134 µg/mL) | 19600 | 3.45 | > 10000 | 26 | 6 | 8.1 | 262 | –
5 | CC(C)(C[C@H]1CN(S(=O)(=O)c2cccc(C(F)(F)F)c2)c2cc(-c3cc(F)cc(OC(F)F)c3)ccc2O1)C(=O)O [CINTIRORGON] | 9.5 | – | 55 | 10 (≈ 6.04 µg/mL) | 3240 | 4.31 | – | – | 6 | – | – | EC50 [10]: > 10000 nM; bioavailability (in vivo [11]): ≥ 100%; bioavailability (in vivo [12]): ≥ 100%; half-life (in vivo [13]): 2.8 h; fraction unbound (in vitro [14]): 0.044; half-life (in vivo [15]): 6.6 h; Vd (in vivo [16]): 1.42 L/kg; Vd (in vivo [17]): 5.7 L/kg; EC50 [18]: > 10000 nM; EC50 (cells): 338 nM; inhibition in vivo at 30 mg/kg (MC-38): 46%; fraction unbound (in vitro [19]): 0.033; IC20 (hERG (KCNH2)): > 50000 nM
6 | O=C(O)C1(C[C@H]2CN(S(=O)(=O)c3cccc(C(F)(F)F)c3)c3cc(-c4cc(F)cc(OC(F)F)c4)ccc3O2)CCOCC1 | -2 | 58 | – | 90 (≈ 58.1 µg/mL) | – | – | 13000 | 9 | 4 | – | 8 | –
7 | O=C(O)CC[C@H]1CN(S(=O)(=O)c2cccc(C(F)(F)F)c2)c2cc(-c3ccccc3Cl)ccc2O1 | 20 | 414 | 78 | 243 (≈ 128 µg/mL) | 11700 | 4.44 | > 10000 | 32 | 0 | 11.1 | 9 | –
8 | O=C(O)CC[C@H]1CN(S(=O)(=O)c2cccc(C(F)(F)F)c2)c2cc(-c3cc(F)ccc3Cl)ccc2O1 | 15 | 124 | – | 239 (≈ 130 µg/mL) | – | – | > 10000 | 27 | 6 | – | 145 | –
9 | O=C(O)CC[C@H]1CN(S(=O)(=O)c2cccc(C(F)(F)F)c2)c2cc(-c3cccc(OC(F)F)c3)ccc2O1 | 19 | 278 | – | 287 (≈ 160 µg/mL) | – | – | > 10000 | 36 | 7 | – | 10 | –
10 | O=C(O)CC[C@H]1CN(S(=O)(=O)c2cccc(C(F)(F)F)c2)c2cc(/C=C/c3c(Cl)cccc3C(F)(F)F)ccc2O1 | 8 | – | 86 | 15 (≈ 9.3 µg/mL) | 71000 | 3.69 | – | 20 | 3 | 2 | – | –
